Consider 3 molecules from ChEMBL document CHEMBL1201862, “PubChem BioAssay data set” (2004).

Activity calls are given as the source filed them.

For one assay, the system named is Staphylococcus aureus. The experiment in a line: Inhibitors of Bacterial Quorum Sensing Structure Activity Relationship (SAR) Analysis: Dose Response Assay. [Related pubchem assays: 700, 527 ]. It counts as functional, organism-based.
Assay [1] has as its target T1, Short transient receptor potential channel 4 (Mus musculus, UniProt Q9QUQ5).
T1 sequence (Q9QUQ5 whole entry): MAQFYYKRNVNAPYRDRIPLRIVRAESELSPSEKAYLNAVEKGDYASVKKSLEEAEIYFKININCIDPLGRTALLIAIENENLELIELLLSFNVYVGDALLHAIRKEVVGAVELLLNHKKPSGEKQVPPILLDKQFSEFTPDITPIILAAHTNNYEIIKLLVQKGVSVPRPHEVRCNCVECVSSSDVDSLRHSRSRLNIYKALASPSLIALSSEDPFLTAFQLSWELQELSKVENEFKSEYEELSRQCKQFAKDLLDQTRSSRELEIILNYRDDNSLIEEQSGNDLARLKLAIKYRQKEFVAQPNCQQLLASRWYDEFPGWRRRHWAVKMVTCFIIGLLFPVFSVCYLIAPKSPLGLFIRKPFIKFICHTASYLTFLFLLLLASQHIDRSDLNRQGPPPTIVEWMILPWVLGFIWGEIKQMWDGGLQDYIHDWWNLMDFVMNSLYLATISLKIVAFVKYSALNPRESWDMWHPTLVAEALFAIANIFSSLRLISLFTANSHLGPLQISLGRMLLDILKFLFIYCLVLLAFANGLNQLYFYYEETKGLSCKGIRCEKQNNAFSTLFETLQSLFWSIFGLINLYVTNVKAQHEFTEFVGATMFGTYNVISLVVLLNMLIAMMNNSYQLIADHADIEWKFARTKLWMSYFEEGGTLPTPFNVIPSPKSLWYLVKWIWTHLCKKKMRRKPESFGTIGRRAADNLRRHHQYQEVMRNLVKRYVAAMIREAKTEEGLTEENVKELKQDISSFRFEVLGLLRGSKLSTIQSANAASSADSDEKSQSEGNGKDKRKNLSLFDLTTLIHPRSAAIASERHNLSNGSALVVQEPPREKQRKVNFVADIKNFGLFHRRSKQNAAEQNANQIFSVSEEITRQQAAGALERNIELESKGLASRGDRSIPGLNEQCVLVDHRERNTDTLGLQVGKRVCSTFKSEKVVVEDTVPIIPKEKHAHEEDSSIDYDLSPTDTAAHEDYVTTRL
The experiment in a line: block of DAMGO-driven TRPC4 calcium entry – cell-based, HEK293 TRPC4/mu-opioid, Fluo-4 calcium, dose response (AID 434942).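 Further: potency of inhibitors blocking the TRPC4 calcium response.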 Format: functional.

The target of assay [2] is T2, RNA-binding protein pos-1 (Caenorhabditis elegans, UniProt G5EF15).
T2 sequence (G5EF15 whole entry): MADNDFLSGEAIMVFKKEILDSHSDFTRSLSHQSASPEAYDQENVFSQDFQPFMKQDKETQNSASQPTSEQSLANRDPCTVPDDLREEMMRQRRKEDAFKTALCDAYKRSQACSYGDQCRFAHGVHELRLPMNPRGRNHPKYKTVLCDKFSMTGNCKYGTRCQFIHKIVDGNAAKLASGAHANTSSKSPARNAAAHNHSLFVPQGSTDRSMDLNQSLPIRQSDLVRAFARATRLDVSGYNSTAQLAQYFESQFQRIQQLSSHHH
The assay can be described thus: disruptors of C. elegans POS-1 RNA interaction – biochemical, fluorescence polarization, dose response (AID 1964).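 Further: purified POS-1 fused to maltose binding protein made in E. coli; potency of compounds blocking POS-1 binding to fluorescent RNA.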

Assay [3] deals with FAD-linked sulfhydryl oxidase ALR (Homo sapiens, UniProt P55789). The assay can be described thus: ALR-catalysed DTT oxidation blockers – biochemical, H2O2 detection, luminescence, cherry-pick, dose response (AID 493248).
FAD-linked sulfhydryl oxidase ALR, sequence (P55789 whole entry): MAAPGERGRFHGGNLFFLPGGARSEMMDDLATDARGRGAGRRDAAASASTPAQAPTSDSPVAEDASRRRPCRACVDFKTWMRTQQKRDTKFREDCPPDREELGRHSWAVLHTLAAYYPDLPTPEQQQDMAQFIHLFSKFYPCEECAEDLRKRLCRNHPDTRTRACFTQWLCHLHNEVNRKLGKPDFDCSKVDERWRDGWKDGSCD
The target in assay [4] is Transitional endoplasmic reticulum ATPase (Homo sapiens, UniProt P55072). The experiment in a line: p97 ATPase inhibitors, dose response, biochemical (AID 1534).
Transitional endoplasmic reticulum ATPase (Homo sapiens, UniProt P55072), sequence (P55072 whole entry): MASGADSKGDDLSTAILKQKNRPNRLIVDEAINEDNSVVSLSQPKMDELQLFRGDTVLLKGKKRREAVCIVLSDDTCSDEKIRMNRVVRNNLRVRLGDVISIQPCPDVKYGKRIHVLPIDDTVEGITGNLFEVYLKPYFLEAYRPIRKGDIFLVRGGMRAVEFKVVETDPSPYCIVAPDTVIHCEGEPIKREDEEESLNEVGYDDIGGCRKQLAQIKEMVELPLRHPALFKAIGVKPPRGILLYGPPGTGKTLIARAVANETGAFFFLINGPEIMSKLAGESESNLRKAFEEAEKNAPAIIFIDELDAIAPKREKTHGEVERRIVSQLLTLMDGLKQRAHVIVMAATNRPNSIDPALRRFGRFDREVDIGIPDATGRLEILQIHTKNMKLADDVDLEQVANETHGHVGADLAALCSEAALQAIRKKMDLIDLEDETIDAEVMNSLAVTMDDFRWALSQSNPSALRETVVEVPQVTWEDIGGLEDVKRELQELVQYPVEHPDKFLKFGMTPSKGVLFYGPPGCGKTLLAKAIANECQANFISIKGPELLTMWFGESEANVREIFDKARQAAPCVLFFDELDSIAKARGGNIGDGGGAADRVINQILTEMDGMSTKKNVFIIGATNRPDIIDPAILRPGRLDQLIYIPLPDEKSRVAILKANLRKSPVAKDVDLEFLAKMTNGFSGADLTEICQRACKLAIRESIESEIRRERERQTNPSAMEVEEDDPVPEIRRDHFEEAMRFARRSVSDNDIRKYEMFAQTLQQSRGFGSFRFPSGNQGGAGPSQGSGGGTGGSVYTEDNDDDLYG
For assay [5], the target named is Transitional endoplasmic reticulum ATPase (Homo sapiens, UniProt P55072, C522A). The assay can be described thus: C522A mutant p97 ATPase inhibitors, dose response, counter-screen for p97 inhibitor project, biochemical, luminescence (AID 1544).
Transitional endoplasmic reticulum ATPase (Homo sapiens, UniProt P55072, C522A), sequence (P55072 2-806 C522A limits assumed): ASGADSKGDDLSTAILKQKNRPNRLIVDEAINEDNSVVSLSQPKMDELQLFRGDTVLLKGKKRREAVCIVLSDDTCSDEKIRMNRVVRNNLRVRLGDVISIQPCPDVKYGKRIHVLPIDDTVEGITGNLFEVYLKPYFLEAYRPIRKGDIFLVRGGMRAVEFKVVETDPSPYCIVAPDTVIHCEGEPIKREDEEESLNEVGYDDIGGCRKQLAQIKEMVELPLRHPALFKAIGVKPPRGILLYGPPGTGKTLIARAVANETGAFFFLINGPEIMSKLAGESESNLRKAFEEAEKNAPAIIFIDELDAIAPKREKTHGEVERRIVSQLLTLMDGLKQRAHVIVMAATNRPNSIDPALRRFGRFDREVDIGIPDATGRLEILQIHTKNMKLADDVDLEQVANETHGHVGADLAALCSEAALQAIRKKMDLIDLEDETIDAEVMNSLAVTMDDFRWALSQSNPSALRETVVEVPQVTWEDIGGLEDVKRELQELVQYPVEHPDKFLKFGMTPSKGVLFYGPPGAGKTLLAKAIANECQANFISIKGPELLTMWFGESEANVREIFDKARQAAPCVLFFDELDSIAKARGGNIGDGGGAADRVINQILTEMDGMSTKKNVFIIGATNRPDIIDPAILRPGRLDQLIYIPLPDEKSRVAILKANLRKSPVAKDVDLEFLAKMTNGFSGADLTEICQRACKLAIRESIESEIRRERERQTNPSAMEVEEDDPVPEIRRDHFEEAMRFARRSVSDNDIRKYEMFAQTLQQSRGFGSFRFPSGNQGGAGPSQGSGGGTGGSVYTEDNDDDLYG
Assay [6] concerns the target T3, Zinc finger protein mex-5 (Caenorhabditis elegans, UniProt Q9XUB2).
T3 sequence (Q9XUB2 whole entry): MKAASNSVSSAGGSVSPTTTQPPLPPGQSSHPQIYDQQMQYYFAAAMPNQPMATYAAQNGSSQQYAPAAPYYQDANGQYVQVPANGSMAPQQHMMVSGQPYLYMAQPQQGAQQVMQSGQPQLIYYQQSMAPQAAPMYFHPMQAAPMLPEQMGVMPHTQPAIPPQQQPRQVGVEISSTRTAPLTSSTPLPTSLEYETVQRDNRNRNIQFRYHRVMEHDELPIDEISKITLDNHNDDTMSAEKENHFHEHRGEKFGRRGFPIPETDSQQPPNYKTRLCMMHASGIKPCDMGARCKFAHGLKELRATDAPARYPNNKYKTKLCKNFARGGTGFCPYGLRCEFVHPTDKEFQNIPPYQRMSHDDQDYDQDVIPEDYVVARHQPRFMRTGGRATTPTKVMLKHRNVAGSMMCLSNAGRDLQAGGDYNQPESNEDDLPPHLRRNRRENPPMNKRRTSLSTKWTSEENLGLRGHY
The experiment in a line: potency of MEX-5 RNA-binding blockers – biochemical, C. elegans, fluorescence polarization, dose response (AID 1960).

The target in assay [7] is T4, Rac GTPase-activating protein 1 (Homo sapiens, UniProt Q9H0H5).
T4 sequence (Q9H0H5 whole entry): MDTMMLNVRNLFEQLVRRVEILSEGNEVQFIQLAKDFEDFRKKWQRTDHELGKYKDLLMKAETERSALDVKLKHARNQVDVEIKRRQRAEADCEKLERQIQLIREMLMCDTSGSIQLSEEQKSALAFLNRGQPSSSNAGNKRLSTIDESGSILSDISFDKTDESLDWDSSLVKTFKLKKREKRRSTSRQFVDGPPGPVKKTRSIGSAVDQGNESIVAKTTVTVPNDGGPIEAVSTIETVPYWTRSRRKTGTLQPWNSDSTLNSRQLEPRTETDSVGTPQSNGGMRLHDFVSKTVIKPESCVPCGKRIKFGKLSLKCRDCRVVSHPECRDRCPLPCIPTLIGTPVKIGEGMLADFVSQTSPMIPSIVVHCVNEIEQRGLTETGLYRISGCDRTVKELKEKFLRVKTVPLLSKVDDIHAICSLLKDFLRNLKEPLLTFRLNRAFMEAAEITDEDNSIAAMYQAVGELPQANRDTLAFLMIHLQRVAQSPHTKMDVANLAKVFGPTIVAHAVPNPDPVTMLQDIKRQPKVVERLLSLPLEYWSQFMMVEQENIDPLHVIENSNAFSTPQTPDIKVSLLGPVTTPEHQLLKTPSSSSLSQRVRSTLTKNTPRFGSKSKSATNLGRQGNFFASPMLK
The experiment in a line: blockers of MgcRacGAP-driven Rac1 GTP hydrolysis – biochemical, ADP Hunter fluorescence, primary and confirmatory, confirmation (AID 624330). It counts as functional.

Assay [8] concerns the target Dual specificity tyrosine-phosphorylation-regulated kinase 1A (Rattus norvegicus, UniProt Q63470). It counts as biochemical, Homo sapiens.
Assay [9] is described as follows: viability loss in HeLa cells – cytotoxicity control for MgcRacGAP inhibitor project, dose response (AID 624300). It counts as functional.
A short description of assay [10]: viability of uninfected HEp-2 cells – cell-based, HTS, cytotoxicity control for RSV inhibitor project, dose response (AID 2410). Format: functional. To be noted: human respiratory syncytial virus.
For assay [11], the target named is Melanin-concentrating hormone receptor 1 (Homo sapiens, UniProt Q99705). The experiment in a line: Fluorescence-based counterscreen for antagonists of the G-protein coupled receptor 7 (GPR7): cell-based high throughput dose response assay to identify antagonists of the melanin-concentrating hormone receptor 1 (MCHR1). It counts as functional.
Melanin-concentrating hormone receptor 1, sequence (Q99705 whole entry): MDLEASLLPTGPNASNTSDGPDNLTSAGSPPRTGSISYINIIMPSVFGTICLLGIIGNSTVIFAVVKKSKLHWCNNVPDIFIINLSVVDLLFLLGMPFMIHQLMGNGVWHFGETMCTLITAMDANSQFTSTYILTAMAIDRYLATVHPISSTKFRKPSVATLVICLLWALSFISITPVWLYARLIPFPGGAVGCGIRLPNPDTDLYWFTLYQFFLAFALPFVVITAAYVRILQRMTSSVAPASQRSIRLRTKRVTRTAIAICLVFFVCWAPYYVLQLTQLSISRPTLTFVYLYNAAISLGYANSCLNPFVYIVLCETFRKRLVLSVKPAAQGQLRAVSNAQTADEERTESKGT
Assay [12] concerns the target Neuropeptides B/W receptor type 1 (Homo sapiens, UniProt P48145). The experiment in a line: Fluorescence-based dose response cell-based high throughput screening assay to identify antagonists of the G-protein coupled receptor 7 (GPR7). [Related pubchem assays: 1952 (Screening assay (GPR7 antagonists).), 1880 (Summary AID.)]. It counts as functional.

Neuropeptides B/W receptor type 1, sequence (P48145 whole entry): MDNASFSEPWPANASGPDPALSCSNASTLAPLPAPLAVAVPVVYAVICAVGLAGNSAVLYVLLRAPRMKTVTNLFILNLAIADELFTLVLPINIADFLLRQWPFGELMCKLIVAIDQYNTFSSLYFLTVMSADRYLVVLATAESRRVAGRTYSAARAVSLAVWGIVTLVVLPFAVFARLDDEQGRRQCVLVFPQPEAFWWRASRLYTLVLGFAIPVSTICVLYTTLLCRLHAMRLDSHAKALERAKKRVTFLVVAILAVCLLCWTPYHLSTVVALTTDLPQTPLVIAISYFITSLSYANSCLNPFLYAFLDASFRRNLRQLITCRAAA

In the case of `COc1ccc(S(=O)(=O)c2nnn3c2[nH]c(=O)c2ccccc23)cc1`, in the assay with Staphylococcus aureus, the IC50 was 0.563 µM (active).

Take `NS(=O)(=O)c1ccc(Nc2nc(-c3ccc(O)cc3O)cs2)cc1`: the values for the EC50 in [1], in assay [2] and in assay [6] were 1.33 µM (active), 17.1 µM (active) and 9.7 µM (active), respectively. The AC50 is 3.12 µM (active) in [3] and 1.94 µM (active) in [8]. The values for the half-inhibitory concentration (IC50) in assay [4], in [5] and in assay [7] were 24.2 µM (not active), > 50 µM (not active) and 44.5 µM (active), respectively. The CC50 in [9] was 100 µM (active).

Turning to `Cc1cc(C[n+]2cc(Br)ccc2N)c2ncccc2c1`, in assay [10], the CC50 was 46.4 µM (active). Further, the IC50 in assay [11] was 26.2 µM (not active); in assay [12], > 43.8 µM (not active).
